Results taken from PubChem BioAssay (NCI).
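Cultured in 96-well plates, cells were exposed to test compound for 48 hours across five concentrations. TGI: total growth inhibition.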

How the values were obtained:
Test in all cases: NCI tumour cell line growth inhibition, 48 h
[1] = tested on: DMS 114 small cell lung
[2] = tested on: SNB-75 CNS
[3] = tested on: OVCAR-8 ovarian
[4] = tested on: SF-295 CNS
[5] = tested on: M14 melanoma
[6] = tested on: HOP-18 NSCLC
[7] = tested on: MOLT-4 leukemia
[8] = tested on: DLD-1 colon
[9] = tested on: OVCAR-4 ovarian
[10] = tested on: KM20L2 colon
[11] = tested on: UACC-62 melanoma
[12] = tested on: LOX IMVI melanoma
[13] = tested on: HCC-2998 colon
[14] = tested on: COLO 205 colon
[15] = tested on: TK-10 renal
[16] = tested on: HL-60(TB) leukemia
[17] = tested on: OVCAR-3 ovarian
[18] = tested on: SW-620 colon
[19] = tested on: NCI-H522 lung
[20] = tested on: UO-31 renal
[21] = tested on: RXF 393 renal
[22] = tested on: HOP-92 NSCLC
[23] = tested on: KM12 colon
[24] = tested on: XF 498 CNS
[25] = tested on: K-562 leukemia
[26] = tested on: A498 renal
[27] = tested on: EKVX NSCLC
[28] = tested on: IGROV1 ovarian
[29] = tested on: ACHN renal
[30] = tested on: CCRF-CEM leukemia
[31] = tested on: HT29 colon
[32] = tested on: LXFL 529 NSCLC
[33] = tested on: HCT-15 colon
[34] = tested on: OVCAR-5 ovarian
[35] = tested on: NCI-H23 lung
[36] = tested on: SK-MEL-28 melanoma
[37] = tested on: SR leukemia
[38] = tested on: SNB-19 CNS
[39] = tested on: DMS 273 small cell lung
[40] = tested on: U251 CNS
[41] = tested on: MALME-3M melanoma
[42] = tested on: SF-268 CNS
[43] = tested on: 786-0 renal
[44] = tested on: NCI-H226 lung
[45] = tested on: RPMI-8226 leukemia
[46] = tested on: SF-539 CNS
[47] = tested on: RXF-631 renal
[48] = tested on: UACC-257 melanoma
[49] = tested on: HCT-116 colon
[50] = tested on: HOP-62 NSCLC
[51] = tested on: M19-MEL melanoma
[52] = tested on: SK-MEL-5 melanoma
[53] = tested on: CAKI-1 renal
[54] = tested on: NCI-H460 lung
[55] = tested on: SNB-78 CNS
[56] = tested on: SK-MEL-2 melanoma
[57] = tested on: A549 NSCLC
[58] = tested on: SN12C renal
[59] = tested on: SK-OV-3 ovarian

With COc1ccccc1/C=C1\CCC(CCN(C)C)(C2=CCCC2)C1=O (configuration not stated) the TGI [1] was 34.2 µM, the TGI [2] was 54.7 µM and the TGI [3] was 34.7 µM. It also gave a TGI [4] of 31.7 µM, a TGI [5] of 31.3 µM and a TGI [6] of 85.3 µM. It also gave a TGI [7] of 54.3 µM, a TGI [8] of 38.5 µM and a TGI [9] of 35.2 µM. It also gave a TGI [10] of 15.7 µM, a TGI [11] of 23.5 µM and a TGI [12] of 31.3 µM. The TGI [13] was 31.9 µM, the TGI [14] was 22.1 µM and the TGI [15] was 37.5 µM. For the same compound, the TGI [16] was 45.5 µM, the TGI [17] was 40.6 µM and the TGI [18] was 32.1 µM. For the same compound, the TGI [19] was 27.1 µM, the TGI [20] was 31.4 µM and the TGI [21] was 27.3 µM. The TGI [22] was 46.6 µM, the TGI [23] was 33 µM and the TGI [24] was 31.7 µM. The TGI [25] was 56.2 µM, the TGI [26] was 32.1 µM and the TGI [27] was 18.6 µM. The TGI [28] was 28.6 µM, the TGI [29] was 34.1 µM and the TGI [30] was 51.6 µM. It also gave a TGI [31] of 39.3 µM, a TGI [32] of 29.6 µM and a TGI [33] of 61.8 µM. The TGI [34] was 82.5 µM, the TGI [35] was greater than 100 µM and the TGI [36] was 32.7 µM. The TGI [37] was 52.3 µM, the TGI [38] was 31.1 µM and the TGI [39] was 32.1 µM. For the same compound, the TGI [40] was 31.1 µM, the TGI [41] was 30.3 µM and the TGI [42] was 40.1 µM. It also gave a TGI [43] of 28.5 µM, a TGI [44] of 40.5 µM and a TGI [45] of 41.3 µM. The TGI [46] was 29.5 µM, the TGI [47] was 29.8 µM and the TGI [48] was 31 µM. The TGI [49] was 25.3 µM, the TGI [50] was 34.5 µM and the TGI [51] was 31.7 µM. The TGI [52] was 26.7 µM, the TGI [53] was 57.2 µM and the TGI [54] was 31.4 µM. For the same compound, the TGI [55] was 65.9 µM, the TGI [56] was 35.6 µM and the TGI [57] was 64.4 µM. The TGI [58] was 50.3 µM.

Compound CC1OC(OCC2OC(Oc3c(-c4ccc(O)cc4)oc4cc(O)cc(O)c4c3=O)C(OC3OC(C)C(O)C(O)C3O)C(O)C2O)C(O)C(O)C1O (configuration not stated) has a TGI [59] greater than 100 µM, a TGI [1] greater than 77.4 µM and a TGI [2] greater than 100 µM. It also gave a TGI [3] greater than 100 µM, a TGI [4] greater than 100 µM and a TGI [5] greater than 100 µM. For the same compound, the TGI [6] was greater than 100 µM, the TGI [7] was greater than 100 µM and the TGI [8] was greater than 100 µM. It also gave a TGI [9] greater than 90.2 µM, a TGI [10] greater than 100 µM and a TGI [11] greater than 100 µM. The TGI [12] was greater than 100 µM, the TGI [13] was greater than 100 µM and the TGI [14] was greater than 72.7 µM. The TGI [15] was greater than 100 µM, the TGI [16] was greater than 100 µM and the TGI [17] was greater than 100 µM. The TGI [18] was greater than 62.4 µM, the TGI [19] was greater than 100 µM and the TGI [20] was greater than 100 µM. The TGI [21] was greater than 100 µM, the TGI [22] was greater than 100 µM and the TGI [23] was greater than 100 µM. For the same compound, the TGI [24] was greater than 100 µM, the TGI [25] was greater than 31.6 µM and the TGI [26] was greater than 100 µM. It also gave a TGI [27] greater than 100 µM, a TGI [28] greater than 100 µM and a TGI [29] greater than 100 µM. It also gave a TGI [30] greater than 83.5 µM, a TGI [31] greater than 100 µM and a TGI [32] greater than 100 µM. For the same compound, the TGI [33] was greater than 56.8 µM, the TGI [34] was greater than 100 µM and the TGI [35] was greater than 100 µM. For the same compound, the TGI [36] was greater than 100 µM, the TGI [37] was greater than 100 µM and the TGI [38] was greater than 100 µM. For the same compound, the TGI [39] was greater than 100 µM, the TGI [40] was greater than 100 µM and the TGI [41] was greater than 100 µM. It also gave a TGI [42] greater than 100 µM, a TGI [43] greater than 100 µM and a TGI [44] greater than 100 µM. The TGI [45] was greater than 81.3 µM, the TGI [46] was greater than 100 µM and the TGI [47] was greater than 100 µM. It also gave a TGI [48] greater than 100 µM, a TGI [49] greater than 100 µM and a TGI [50] greater than 100 µM. For the same compound, the TGI [51] was greater than 100 µM, the TGI [52] was greater than 100 µM and the TGI [53] was greater than 100 µM. The TGI [54] was greater than 100 µM, the TGI [55] was greater than 100 µM and the TGI [56] was greater than 100 µM. For the same compound, the TGI [57] was greater than 100 µM and the TGI [58] was greater than 100 µM.
